Measured values published in ChEMBL document CHEMBL4342402, “An insight into medicinal chemistry of anticancer quinoxalines” (Bioorg Med Chem, 2019).
pIC50: −log10 of the molar value.

Tests used:
[1] = Inhibition of phosphoinositide 3-Kinase (unknown origin); design: species or system Homo sapiens
[2] = molecular target: Platelet-derived growth factor receptor beta (Homo sapiens, UniProt P09619); experiment: Inhibition of human PDGFR beta
[3] = molecular target: T1, Receptor-type tyrosine-protein kinase FLT3 (Homo sapiens, UniProt P36888); experiment: Inhibition of human FLT3 expressed in mouse BAF3 cells assessed as reduction in […] incubated for 2 hrs followed by FLT3 ligand stimulation by immunoblot analysis; type: cell-based
T1 sequence (P36888 whole entry): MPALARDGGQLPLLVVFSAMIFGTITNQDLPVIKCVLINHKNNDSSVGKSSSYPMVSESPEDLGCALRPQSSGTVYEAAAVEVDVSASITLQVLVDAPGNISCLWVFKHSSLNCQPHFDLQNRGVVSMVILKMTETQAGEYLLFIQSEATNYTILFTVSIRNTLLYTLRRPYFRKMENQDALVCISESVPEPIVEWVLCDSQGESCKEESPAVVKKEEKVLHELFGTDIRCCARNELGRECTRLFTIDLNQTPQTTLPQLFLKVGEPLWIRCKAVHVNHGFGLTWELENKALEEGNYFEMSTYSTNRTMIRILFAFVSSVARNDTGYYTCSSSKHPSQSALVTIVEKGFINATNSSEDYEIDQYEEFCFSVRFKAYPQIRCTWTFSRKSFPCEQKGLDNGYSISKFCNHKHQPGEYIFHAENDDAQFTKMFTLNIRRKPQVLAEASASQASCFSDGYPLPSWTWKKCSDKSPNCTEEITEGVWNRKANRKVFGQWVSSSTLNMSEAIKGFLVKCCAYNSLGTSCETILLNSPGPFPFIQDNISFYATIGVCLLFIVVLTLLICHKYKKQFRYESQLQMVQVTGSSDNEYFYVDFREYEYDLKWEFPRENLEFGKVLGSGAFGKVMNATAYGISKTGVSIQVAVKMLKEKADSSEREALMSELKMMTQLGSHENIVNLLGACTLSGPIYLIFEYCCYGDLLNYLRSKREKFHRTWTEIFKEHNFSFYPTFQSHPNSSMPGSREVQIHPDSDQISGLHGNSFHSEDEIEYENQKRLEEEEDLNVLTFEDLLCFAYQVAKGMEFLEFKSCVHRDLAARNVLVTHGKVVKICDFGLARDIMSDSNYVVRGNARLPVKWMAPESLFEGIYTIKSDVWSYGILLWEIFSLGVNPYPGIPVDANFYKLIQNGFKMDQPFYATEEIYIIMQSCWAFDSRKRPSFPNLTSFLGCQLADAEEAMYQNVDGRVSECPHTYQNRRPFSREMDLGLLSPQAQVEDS

[4] = Inhibition of PDGFR in mouse NIH/3T3 cells assessed as reduction in tyrosine phosphorylation incubated for 2 hrs by SDS-PAGE based immunoblot assay; type: cell-based; conditions: NIH3T3, 2 h
[5] = Inhibition of VEGFR (unknown origin); design: species or system Homo sapiens
[6] = molecular target: Epidermal growth factor receptor (Homo sapiens, UniProt P00533); experiment: Inhibition of EGFR in human A431 cells incubated for 2 hrs followed by EGF stimulation and measured after 10 mins by immunoblot assay; type: cell-based
[7] = molecular target: Proto-oncogene tyrosine-protein kinase Src (Mus musculus, UniProt P05480); experiment: Inhibition of SRC in transformed mouse NIH3T3 cells by SDS-PAGE based immunoblot assay; type: cell-based
Chain of Proto-oncogene tyrosine-protein kinase Src (P05480 2-535 limits assumed): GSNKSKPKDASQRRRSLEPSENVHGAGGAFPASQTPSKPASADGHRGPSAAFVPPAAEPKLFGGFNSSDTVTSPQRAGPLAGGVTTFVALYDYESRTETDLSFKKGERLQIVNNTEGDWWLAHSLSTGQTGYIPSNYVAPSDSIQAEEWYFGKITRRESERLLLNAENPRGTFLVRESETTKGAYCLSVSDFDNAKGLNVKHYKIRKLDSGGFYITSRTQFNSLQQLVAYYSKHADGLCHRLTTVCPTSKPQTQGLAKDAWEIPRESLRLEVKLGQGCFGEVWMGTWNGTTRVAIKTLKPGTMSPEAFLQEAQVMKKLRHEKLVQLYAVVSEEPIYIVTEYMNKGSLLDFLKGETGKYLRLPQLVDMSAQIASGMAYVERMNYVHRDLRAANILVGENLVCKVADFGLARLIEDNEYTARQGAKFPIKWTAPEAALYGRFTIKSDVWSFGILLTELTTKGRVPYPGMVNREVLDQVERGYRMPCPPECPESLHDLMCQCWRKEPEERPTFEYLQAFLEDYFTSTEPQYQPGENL

[8] = molecular target: Mast/stem cell growth factor receptor Kit (Homo sapiens, UniProt P10721); experiment: Inhibition of c-KIT in human M-07e cells assessed as reduction in […] incubated for 2 hrs followed by KIT ligand stimulation by immunoblotting analysis; type: cell-based
Chain of Mast/stem cell growth factor receptor Kit (P10721 whole entry): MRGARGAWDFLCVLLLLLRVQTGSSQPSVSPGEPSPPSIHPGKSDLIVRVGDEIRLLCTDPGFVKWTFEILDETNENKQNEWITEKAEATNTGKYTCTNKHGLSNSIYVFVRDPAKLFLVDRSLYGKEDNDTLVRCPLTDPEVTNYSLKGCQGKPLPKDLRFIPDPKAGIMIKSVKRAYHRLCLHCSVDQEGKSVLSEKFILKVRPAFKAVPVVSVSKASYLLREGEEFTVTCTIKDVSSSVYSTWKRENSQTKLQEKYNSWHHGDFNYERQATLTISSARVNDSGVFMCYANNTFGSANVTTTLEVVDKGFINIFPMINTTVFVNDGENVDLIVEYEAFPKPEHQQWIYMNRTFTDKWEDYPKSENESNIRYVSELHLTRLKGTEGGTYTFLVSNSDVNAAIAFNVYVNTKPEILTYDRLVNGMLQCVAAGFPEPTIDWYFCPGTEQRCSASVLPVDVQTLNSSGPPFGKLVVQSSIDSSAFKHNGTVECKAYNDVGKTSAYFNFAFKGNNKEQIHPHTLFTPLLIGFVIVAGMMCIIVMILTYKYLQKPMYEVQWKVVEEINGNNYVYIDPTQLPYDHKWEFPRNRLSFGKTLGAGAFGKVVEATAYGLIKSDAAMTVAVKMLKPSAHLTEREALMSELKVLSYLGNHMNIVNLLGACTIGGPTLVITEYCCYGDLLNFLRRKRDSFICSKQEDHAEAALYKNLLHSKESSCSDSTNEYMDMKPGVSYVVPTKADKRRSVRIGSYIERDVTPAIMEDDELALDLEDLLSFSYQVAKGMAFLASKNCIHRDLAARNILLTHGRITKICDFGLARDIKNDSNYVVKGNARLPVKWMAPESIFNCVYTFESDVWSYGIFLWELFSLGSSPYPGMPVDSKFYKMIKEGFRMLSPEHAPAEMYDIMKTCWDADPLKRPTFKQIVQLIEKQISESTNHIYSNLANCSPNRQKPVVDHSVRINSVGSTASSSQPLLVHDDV

[9] = molecular target: Insulin-like growth factor 1 receptor (Homo sapiens, UniProt P08069); experiment: Inhibition of IGFR1 (unknown origin) using poly (Glu,Tyr) 4:1 as substrate
Chain of Insulin-like growth factor 1 receptor (P08069 31-736 limits assumed): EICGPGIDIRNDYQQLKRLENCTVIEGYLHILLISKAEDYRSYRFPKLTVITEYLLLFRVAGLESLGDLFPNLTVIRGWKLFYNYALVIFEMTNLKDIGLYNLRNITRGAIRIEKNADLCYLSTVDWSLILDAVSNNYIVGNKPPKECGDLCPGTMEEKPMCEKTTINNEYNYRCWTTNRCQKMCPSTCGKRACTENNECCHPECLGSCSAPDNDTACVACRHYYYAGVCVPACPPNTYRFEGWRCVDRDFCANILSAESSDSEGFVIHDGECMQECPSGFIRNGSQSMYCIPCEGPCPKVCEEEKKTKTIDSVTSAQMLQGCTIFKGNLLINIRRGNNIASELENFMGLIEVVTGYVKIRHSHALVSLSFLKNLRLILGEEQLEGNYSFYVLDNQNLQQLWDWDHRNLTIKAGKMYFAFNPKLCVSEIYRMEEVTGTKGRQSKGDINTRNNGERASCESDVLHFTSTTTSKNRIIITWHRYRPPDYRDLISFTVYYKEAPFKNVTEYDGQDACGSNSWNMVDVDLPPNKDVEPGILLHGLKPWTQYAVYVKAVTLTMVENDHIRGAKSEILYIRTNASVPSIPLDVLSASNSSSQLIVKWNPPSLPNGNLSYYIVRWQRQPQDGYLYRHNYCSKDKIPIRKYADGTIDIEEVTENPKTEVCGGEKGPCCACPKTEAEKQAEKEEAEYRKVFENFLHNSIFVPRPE
Chain of Insulin-like growth factor 1 receptor (P08069 741-1367 limits assumed): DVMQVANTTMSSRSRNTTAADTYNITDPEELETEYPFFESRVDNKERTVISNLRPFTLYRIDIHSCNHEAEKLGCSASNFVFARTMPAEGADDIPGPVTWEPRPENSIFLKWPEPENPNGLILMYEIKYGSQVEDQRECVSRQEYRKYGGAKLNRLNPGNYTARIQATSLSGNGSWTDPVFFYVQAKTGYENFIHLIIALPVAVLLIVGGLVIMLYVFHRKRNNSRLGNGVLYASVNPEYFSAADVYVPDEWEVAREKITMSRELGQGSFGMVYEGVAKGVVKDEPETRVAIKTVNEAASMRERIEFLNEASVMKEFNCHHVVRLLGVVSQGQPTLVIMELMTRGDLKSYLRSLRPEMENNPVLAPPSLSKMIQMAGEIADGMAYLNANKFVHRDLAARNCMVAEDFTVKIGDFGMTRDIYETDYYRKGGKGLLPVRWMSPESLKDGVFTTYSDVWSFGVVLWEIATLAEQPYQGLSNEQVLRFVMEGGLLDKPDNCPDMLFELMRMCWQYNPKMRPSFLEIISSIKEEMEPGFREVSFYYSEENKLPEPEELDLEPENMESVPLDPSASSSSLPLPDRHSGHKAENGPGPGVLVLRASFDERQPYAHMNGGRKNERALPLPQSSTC

SK-OV-3 = experiment: Antiproliferative activity against human SKOV3 cells; type: functional, cell-based
HCT-15 = experiment: Antiproliferative activity against human HCT15 cells; type: functional, cell-based
BE = experiment: Antiangiogenic activity in human BE cells after 24 hrs by MTT assay; type: functional, cell-based
HUVEC = experiment: Antiangiogenic activity in HUVEC after 24 hrs by MTT assay; type: functional, cell-based; conditions: Homo sapiens
U-87 MG = experiment: Antiangiogenic activity in human U87cells after 24 hrs by MTT assay; type: functional, cell-based, U-87MG ATCC
MCF7 = experiment: Cytotoxicity against human MCF7 cells after 48 hrs by MTT assay; type: functional, cell-based; conditions: MCF7, 48 h
[10] = Half life in rat plasma; type: ADME, cell-free
[11] = Half life in guinea pig plasma; type: ADME, cell-free, Cavia porcellus
[12] = Half life in mouse plasma; type: ADME, cell-free
ECa-109 cell line [13] = experiment: Cytotoxicity against human ECA109 cells after 72 hrs in presence of 3% O2 by MTT assay; type: functional, cell-based; conditions: ECa-109, 72 h
PC-3 [14] = experiment: Cytotoxicity against human PC3 cells after 72 hrs in presence of 20% O2 by MTT assay; type: functional, cell-based; conditions: PC-3, 72 h
SGC-7901 [15] = experiment: Cytotoxicity against human SGC7901 cells after 72 hrs in presence of 3% O2 by MTT assay; type: functional, cell-based; conditions: SGC-7901, 72 h
K562 [16] = experiment: Cytotoxicity against human K562 cells after 72 hrs in presence of 20% O2 by MTT assay; type: functional, cell-based; conditions: K562, 72 h
K562 [17] = experiment: Cytotoxicity against human K562 cells after 72 hrs in presence of 3% O2 by MTT assay; type: functional, cell-based; conditions: K562, 72 h
SMMC-7721 [18] = experiment: Cytotoxicity against human SMMC7721 cells after 72 hrs in presence of 3% O2 by MTT assay; type: functional, cell-based; conditions: SMMC-7721, 72 h
PC-3 [19] = experiment: Cytotoxicity against human PC3 cells after 72 hrs in presence of 3% O2 by MTT assay; type: functional, cell-based; conditions: PC-3, 72 h
ECa-109 cell line [20] = experiment: Cytotoxicity against human ECA109 cells after 72 hrs in presence of 20% O2 by MTT assay; type: functional, cell-based; conditions: ECa-109, 72 h
SMMC-7721 [21] = experiment: Cytotoxicity against human SMMC7721 cells after 72 hrs in presence of 20% O2 by MTT assay; type: functional, cell-based; conditions: SMMC-7721, 72 h
SGC-7901 [22] = experiment: Cytotoxicity against human SGC7901 cells after 72 hrs in presence of 20% O2 by MTT assay; type: functional, cell-based; conditions: SGC-7901, 72 h
[23] = Acute toxicity in po dosed Wistar rat measured up to 14 days; type: organism-based; conditions: in vivo
[24] = Inhibition of Marthasterias glacialis oocyte CDK1/cyclin B using histone as substrate in presence of [gamma32P]ATP after 10 mins by scintillation counting method
[25] = molecular target: Cyclin-dependent kinase 5/CDK5 activator 1 (Homo sapiens, UniProt Q00535); experiment: Inhibition of CDK5/p25 (unknown origin) expressed in Escherichia coli using histone as substrate in presence of [gamma32P]ATP after 10 mins by scintillation counting method
Chain of Cyclin-dependent kinase 5/CDK5 activator 1 (Q00535 whole entry): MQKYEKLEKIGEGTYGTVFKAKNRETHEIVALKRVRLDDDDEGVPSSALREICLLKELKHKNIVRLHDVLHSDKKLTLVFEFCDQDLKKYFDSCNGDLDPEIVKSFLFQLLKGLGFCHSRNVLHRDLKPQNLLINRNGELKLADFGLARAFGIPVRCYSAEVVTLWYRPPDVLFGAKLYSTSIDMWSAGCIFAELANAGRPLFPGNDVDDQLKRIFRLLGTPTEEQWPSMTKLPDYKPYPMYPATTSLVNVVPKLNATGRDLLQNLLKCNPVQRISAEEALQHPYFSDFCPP
Chain of Cyclin-dependent kinase 5/CDK5 activator 1 (Q15078 whole entry, further chain): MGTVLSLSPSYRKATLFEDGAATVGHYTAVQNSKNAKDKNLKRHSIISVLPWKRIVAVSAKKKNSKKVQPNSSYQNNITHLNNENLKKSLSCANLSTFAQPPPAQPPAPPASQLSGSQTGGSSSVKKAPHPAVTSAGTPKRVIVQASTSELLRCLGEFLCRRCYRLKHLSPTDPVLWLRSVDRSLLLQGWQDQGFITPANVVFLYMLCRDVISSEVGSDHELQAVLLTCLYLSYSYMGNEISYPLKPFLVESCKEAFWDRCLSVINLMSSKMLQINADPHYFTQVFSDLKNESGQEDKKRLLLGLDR

Chain of Platelet-derived growth factor receptor beta (P09619 whole entry): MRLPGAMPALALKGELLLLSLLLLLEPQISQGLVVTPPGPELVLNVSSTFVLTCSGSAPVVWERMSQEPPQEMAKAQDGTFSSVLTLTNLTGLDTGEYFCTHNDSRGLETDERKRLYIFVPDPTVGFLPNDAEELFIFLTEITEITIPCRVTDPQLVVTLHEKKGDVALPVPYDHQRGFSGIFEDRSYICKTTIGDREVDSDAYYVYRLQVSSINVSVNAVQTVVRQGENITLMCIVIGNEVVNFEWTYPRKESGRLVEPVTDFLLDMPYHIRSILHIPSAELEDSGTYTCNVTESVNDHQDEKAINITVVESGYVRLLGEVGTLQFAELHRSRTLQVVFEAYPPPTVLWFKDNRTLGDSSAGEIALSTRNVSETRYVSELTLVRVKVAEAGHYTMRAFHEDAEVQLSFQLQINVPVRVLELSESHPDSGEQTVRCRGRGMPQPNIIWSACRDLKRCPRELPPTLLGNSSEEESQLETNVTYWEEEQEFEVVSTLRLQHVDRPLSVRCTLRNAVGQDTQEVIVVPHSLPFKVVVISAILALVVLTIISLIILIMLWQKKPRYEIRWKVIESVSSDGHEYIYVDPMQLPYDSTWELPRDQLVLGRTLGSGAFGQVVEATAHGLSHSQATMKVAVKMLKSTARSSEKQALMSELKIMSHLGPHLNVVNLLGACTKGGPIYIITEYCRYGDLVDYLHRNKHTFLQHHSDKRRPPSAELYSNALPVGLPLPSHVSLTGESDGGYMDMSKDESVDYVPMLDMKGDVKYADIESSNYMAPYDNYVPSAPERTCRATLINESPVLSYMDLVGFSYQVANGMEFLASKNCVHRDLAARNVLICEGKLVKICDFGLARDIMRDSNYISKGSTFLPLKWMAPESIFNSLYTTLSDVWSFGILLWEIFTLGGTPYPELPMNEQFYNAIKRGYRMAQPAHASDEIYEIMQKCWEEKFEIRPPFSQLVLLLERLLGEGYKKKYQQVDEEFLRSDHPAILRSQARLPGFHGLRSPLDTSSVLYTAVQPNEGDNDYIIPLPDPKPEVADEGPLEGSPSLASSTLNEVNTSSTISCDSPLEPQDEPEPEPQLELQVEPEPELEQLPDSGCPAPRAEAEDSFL

O=S(=O)(c1ccccc1)c1nc2ccccc2nc1N1CCOCC1
pIC50 [1]: 7.40

O=S(=O)(c1ccc(Br)cc1)c1nc2ccccc2nc1N1CCC(O)CC1
pIC50 [1]: 7.40

Cc1nc2cc3nc(-c4cccs4)cnc3cc2n1C
pIC50 [2]: 7.05
pIC50 [3]: 5.52 to 6.00
pIC50 [4]: 6.10
pIC50 [5]: < 4.52
pIC50 [6]: < 4.52
pIC50 [7]: < 4.52
pIC50 [8]: 5.52 to 6.00
pIC50 [9]: < 4.52

CCCCCNCc1ccc2c(c1)C(=O)c1nccnc1C2=O
pIC50 (SK-OV-3): 6.40
pIC50 (HCT-15): 7.30

Cc1cc2ncc(-c3ccc(O)c(O)c3)nc2cc1C
pIC50 (BE): < 4.30
pIC50 (HUVEC): 4.61
pIC50 (U-87 MG): < 4.30

C[n+]1c2ccccc2nc2c1c1cc(F)ccc1n2CCCC[N+]1(C)CCCCC1
pIC50 (MCF7): 5.71

C[n+]1c2ccccc2nc2c1c1cc(F)ccc1n2CCCC[N+]1(C)CCCC1
pIC50 (MCF7): 5.74

C[n+]1c2ccccc2nc2c1c1cc(F)ccc1n2CCCCCC[N+]1(C)CCCCC1
pIC50 (MCF7): 5.80

Cc1cc2ncc(-c3ccc(OCc4ccccc4)c(O)c3)nc2cc1C
pIC50 (BE): 4.39
pIC50 (HUVEC): < 4.00
pIC50 (U-87 MG): 4.80

CC(=O)Oc1ccc(-c2cnc3cc(C)c(C)cc3n2)cc1O
pIC50 (BE): < 4.30
pIC50 (HUVEC): 4.26
pIC50 (U-87 MG): 4.37

NC(=O)C1CCN(c2nc3ccccc3nc2S(=O)(=O)c2ccc(Br)cc2)CC1
pIC50 [1]: 7.40

COc1ccc(-c2cnc3cc(C)c(C)cc3n2)cc1O
pIC50 (BE): < 4.30
pIC50 (HUVEC): < 4.00
pIC50 (U-87 MG): < 4.30

CC(C)OC(=O)N1CCN(c2ncc(-c3ccc4nccnc4c3)cc2C#N)CC1
half-life [10]: 16.7 min
half-life [11]: 4.02 min
half-life [12]: 61 min

CCS(=O)(=O)c1c(-c2ccc(Br)cc2)[n+]([O-])c2cc(C)ccc2[n+]1[O-]
pIC50 (ECa-109 cell line [13]): 5.20
pIC50 (PC-3 [14]): > 5.00
pIC50 (SGC-7901 [15]): 5.05
pIC50 (K562 [16]): > 5.00
pIC50 (K562 [17]): 6.74
pIC50 (SMMC-7721 [18]): 5.50
pIC50 (PC-3 [19]): 5.30
pIC50 (ECa-109 cell line [20]): > 5.00
pIC50 (SMMC-7721 [21]): > 5.00
pIC50 (SGC-7901 [22]): > 5.00

O=C(c1ccccc1)N1CCN(c2nc3ccccc3nc2S(=O)(=O)c2ccccc2)CC1
pIC50 [1]: 7.40

CC(=O)c1c(C)[n+]([O-])c2ccccc2[n+]1[O-] [MEQUINDOX]
LD50 at 336 h [23]: 550 mg/kg

Nc1n[nH]c2nc3ccccc3nc12 [QUINOXALINE1]
pIC50 [24]: 6.22
pIC50 [25]: 6.40
